# Measurements as given in BindingDB's records for patent US9187487 (Principia Biopharma, 2015).
# Target: T1, Tyrosine-protein kinase JAK3 [781-1124] (Homo sapiens, UniProt P52333)
# T1 construct: 781-1124
# Assay: Phosphorylation Assay
# Details: pH 7.5
# Procedure: Phosphorylation of the appropriate peptide substrate (fluorescently labeled Srctide) by recombinant JAK3 (catalytic domain, aa 781-1124) was measured in the presence and absence of different concentrations of test compounds. Test compound, enzyme, fluorescently labeled substrate, and cofactors (ATP and Mg2+) were combined in a well of a microtiter plate and incubated for 2 hours at 25° C. The composition of the reaction buffer was 100 mM HEPES pH 7.5, 5 mM MgCl2, 0.01% Triton-X 100, 0.1% Bovine Serum Albumin, and 1% DMSO. Enzyme concentration in the final reaction mixture was 0.5 nM while peptide substrate was at 1 uM. ATP was used at 1xKm concentration corresponding to 2 uM. Serial dilutions (3-fold steps) of compounds were prepared in DMSO. At the end of the incubation, the reaction was stopped by the addition of 20 mM EDTA. Substrate and product (i.e. phosphorylated substrate) were separated electrophoretically and both were quantified by fluorescence intensity.
# T1 sequence (P52333 781-1124): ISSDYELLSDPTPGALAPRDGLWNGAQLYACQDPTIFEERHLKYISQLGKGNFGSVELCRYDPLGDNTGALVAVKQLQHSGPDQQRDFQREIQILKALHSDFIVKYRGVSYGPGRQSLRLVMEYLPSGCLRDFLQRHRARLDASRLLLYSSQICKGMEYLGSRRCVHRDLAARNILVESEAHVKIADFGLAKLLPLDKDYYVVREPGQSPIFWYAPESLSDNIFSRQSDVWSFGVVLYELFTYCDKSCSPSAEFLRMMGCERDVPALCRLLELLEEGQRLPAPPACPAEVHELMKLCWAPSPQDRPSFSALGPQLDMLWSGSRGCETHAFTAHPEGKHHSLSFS
smiles,measurement,value
"CC(C)C(=O)c1c[nH]c2ncc(-c3cccc(C=C(C#N)C(=O)N(C)C)c3)nc12 [US9187487, 37]",IC50,190 nM
"CC(C)(C)C(=O)c1c[nH]c2ncc(Nc3ccc(C=C4SC(=O)NC4=O)cc3)nc12 [US9187487, 65]",IC50,4 nM
